Results published in PMC11314205, “Incorporation of an Isohexide Subunit into the Endochin-like Quinolone Scaffold” (Molecules, 2024).
Values after ≈ are worked out from the molar mass of the structure shown. “Also recorded” adds a separate entry of the source. Where two headings read alike, the source gives them in different places.

How the values were obtained:
Tm90-C2B = tested on: Tm90-C2B; parameters: method as in PMID 24720377; settings: strain Tm90-C2B; cited from earlier work
D6 = tested on: D6; parameters: method as in PMID 24720377; settings: strain D6; cited from earlier work
[1] = parameters: method as in PMID 23515079; settings: cited from earlier work
[2] = tested on: human hepatoma-derived HepG2 cells; parameters: method as in PMID 24720377; settings: read-out: Cytotox. IC50; cited from earlier work
Dd2 = tested on: Dd2; parameters: method as in PMID 24720377; settings: strain Dd2; cited from earlier work
[3] = tested on: chloroquine-sensitive Plasmodium falciparum strain 3D7 (MRA-102); experiment: In vitro screening against chloroquine-sensitive P. falciparum 3D7; assay type: cell-based
Protocol: (§1) The ELQs 14–17 were tested against the chloroquine-sensitive Plasmodium falciparum strain 3D7 (MRA-102), as provided by the MR4 Unit of the American Type Culture Collection (ATCC, Manassas, VA, USA). Details of the assay have been previously published. Cytotoxicity IC50 values for 14–17 were obtained on human BJ fibroblasts as previously described. [table]

[4] = Cytotoxicity on BJ fibroblasts, CTG reagent; assay type: cell-based; settings: human BJ fibroblasts, 72 h exposure at 37 °C, read-out: Cytotox. IC50
Protocol: as §1

[5] = Kinetic (report: thermodynamic) solubility in pH 7.4 phosphate buffer, quantitative LC-MS; assay type: physicochemical; settings: 23 °C
[6] = Kinetic (report: thermodynamic) solubility in pH 7.4 phosphate buffer, quantitative LC-MS; assay type: physicochemical; settings: phosphate buffer pH 7.4, room temperature, LC-MS (supplementary report); for solubility at 20 h: phosphate buffer, 23 °C, pH 7.4, aqueous buffer, thermodynamic from solid
Protocol: Title: Thermodynamic Solubility Study in Phosphate Buffer 7.4 Date: 02/24/2023 […]
The goal of this study is to determine the thermodynamic solubility values for compounds: JS -13, JS-14, JS-17 and JS-18 in phosphate buffer pH 7.4.
Compound ID Solubility (µM) Solubility (mg/mL)
The scope of the thermodynamic (equilibrium) solubility experiment is to investigate the solubility of the compounds in a saturated solution. For this method, phosphate buffer is added to solid compound and mixed at room temperature for […] to ensure that equilibrium is achieved. To determine concentrations to generate calibration curves and for the equilibrated compounds (in buffer) a general LC-MS method was developed. The method includes a high-resolution separation by a UPLC unit as well as a high sensitivity ion detection by a mass spectrometer equipped with an electrospray ionization probe. For calibration curves the compounds were dissolved in DMSO and diluted by ACN. The supernatant of the equilibrated samples, after a 2-step centrifugation process, were also diluted by ACN to ensure full solubilization.
(1 picture or pasted object on this page, not shown here)
The experiment was carried out as recommended by AstraZeneca’s Mechanistic Biology & Profiling, Discovery Sciences, R&D group (AstraZeneca, Gothenburg, Sweden). The method was published in ASSAY and Drug Development Technologies; Title: “A Fully Integrated Assay Panel for Early Drug Metabolism and […]
• The experiment was performed on December 3, 2022
A Shimadzu LC-40D XR HPLC system equipped with a PDA detector (Model: SPD-M40) and connected to an LCMS-2020 mass spectrometer was utilized for determining sample concentrations. For HPLC separation an XBridge C18 column (4.6x50 mm, […] particle size) from Waters Inc. was used, the column oven temperature was set at 40°C. To determine the concentration of the compounds, eluent A containing 0.1% trifluoroacetic acid (TFA) in water, eluent B containing 0.1% TFA in acetonitrile and a linear gradient (5-100% B in 3 min) were utilized. Molecular ions (MH+) were generated by combined ESI and APCI ionization methods and collected by a DUIS detector. The mass spectrometer was calibrated by standards provided by Shimadz u Scientific Instruments. Single ion monitoring (SIM) methods were used to maximize sensitivity for each compound as described in Table […]
Compound ID Primary Ion Secondary Ion Note
+ + 414.15+ is identical to MH+ generated
• To establish calibration curves, the weighted compounds were dissolved in 100 µL of dimethyl sulfoxide (DMSO) and diluted by 400 µL of acetonitrile (ACN). The stock solution was further diluted by ACN (5x, in 5 steps). For all LC-MS experiments 5 µL sample was injected. To perform equilibration studies, 500 µL phosphate buffer was added to each weighted compound. The results slurries were stirred at room temperature for 20 hr. After equilibration, the samples were transferred to […]
Eppendorf tubes and centrifuged for 30 min at 2,000 x g. 200 µL of the supernatant of each sample was transferred and centrifuged again f or 30 min at 2,000 x g. Dilution and LC-MS analyses were performed as described for the calibration curves.
ACN, DMSO and HPLC quality water were purchased from MilliporeSigma Inc.
TFA (99.9% purity) was from Chem-Impex International Inc.
• The data was archived in the MD&S Laboratory electronic notebook (ChemCart, DeltaSoft Inc.) on […]
• Data processing software used: Microsoft Office 365 – Excel.
3.1 Structures, molecular weights
Compound Chemical Exact SMILE
[C@]4([H])OC3)C=C2)=C(C)NC5=CC=C(Cl)C=C51
[H])OC3)C=C2)=C(C)NC5=CC=C(Cl)C=C51
4([H])OC3)C=C2)=C(C)NC5=CC=C(Cl)C=C51
C@]4([H])OC3)C=C2)=C(C)NC5=CC=C(Cl)C=C51
Table 2. Compound IDs, chemical formulas, exact (monoisotopic) molecular weights, SMILE notations

[7] = chloroquine-sensitive P. falciparum strain 3D7, read-out: EC50
[8] = P. falciparum strain 3D7, read-out: EC50 (antimalarial potency)

Structure (SMILES)	EC50 [3, 7] [µM]	solubility thermodynamic at 20 h [5] [µM]	EC50 [3, 8] [µM]	solubility at 20 h ([6]; read-out: Solubility) [µM]	solubility at 20 h ([6]; read-out: Solubility (mg/mL)) [mg/mL]	IC50 at 72 h [4] [µM]	other results
COc1cc2[nH]c(C)c(-c3ccc(Oc4ccc(OC(F)(F)F)cc4)cc3)c(=O)c2cc1Cl [C00001]							EC50 (Tm90-C2B): 0.0014 µM; EC50 (D6): 0.0022 µM; Kinetic Solubility [1]: 16 µM; IC50 [2]: > 10 µM; EC50 (Dd2): 0.0025 µM
Cc1[nH]c2ccc(Cl)cc2c(=O)c1-c1ccc(Oc2ccc(OC(F)(F)F)cc2)cc1 [C00002]							EC50 (Tm90-C2B): 0.0023 µM; EC50 (D6): 0.0032 µM; IC50 [2]: > 10 µM; EC50 (Dd2): 0.0056 µM
CC(=O)O[C@H]1CO[C@H]2[C@@H]1OC[C@@H]2Oc1ccc(-c2c(C)[nH]c3ccc(Cl)cc3c2=O)cc1 [Compound 14, (3S,3aR,6S,6aR)-6-(4-(6-Chloro-2-methyl-4-oxo-1,4-dihydroquinolin-3-yl)phenoxy)hexahydrofuro[3,2-b]furan-3-yl Acetate]			> 1				melting point: 298 to 299 °C; Solubility (M) ([6]; listed as JS-13): Unstable in buffer; also recorded: hydrolyzed under equilibrating conditions
Cc1[nH]c2ccc(Cl)cc2c(=O)c1-c1ccc(O[C@H]2CO[C@H]3[C@@H]2OC[C@@H]3O)cc1 [Compound 15, 6-Chloro-3-(4-(((3S,3aR,6S,6aR)-6-hydroxyhexahydrofuro[3,2-b]furan-3-yl)oxy)phenyl)-2-methylquinolin-4(1H)-one]			> 1	95	0.039		
CO[C@H]1CO[C@H]2[C@@H]1OC[C@@H]2Oc1ccc(-c2c(C)[nH]c3ccc(Cl)cc3c2=O)cc1 [Compound 16, 6-Chloro-3-(4-(((3S,3aR,6S,6aR)-6-methoxyhexahydrofuro[3,2-b]furan-3-yl)oxy)phenyl)-2-methylquinolin-4(1H)-one]			> 1	22	0.009		
COCCO[C@H]1CO[C@H]2[C@@H]1OC[C@@H]2Oc1ccc(-c2c(C)[nH]c3ccc(Cl)cc3c2=O)cc1 [Compound 17, 6-Chloro-3-(4-(((3S,3aR,6S,6aR)-6-(2-methoxyethoxy)hexahydrofuro[3,2-b]furan-3-yl)oxy)phenyl)-2-methylquinolin-4(1H)-one]			> 1	127	0.06		

Continued, in another order:

EC50 [3, 7] [µM]	solubility thermodynamic at 20 h [5] [µM]	EC50 [3, 8] [µM]	solubility at 20 h ([6]; read-out: Solubility) [µM]	solubility at 20 h ([6]; read-out: Solubility (mg/mL)) [mg/mL]	Structure (SMILES)	IC50 at 72 h [4] [µM]	other results
> 1					CC(=O)OC1COC2C(Oc3ccc(-c4c(C)[nH]c5ccc(Cl)cc5c4=O)cc3)COC12 (centres unmarked) [C00003]	> 100	
> 1	95 (≈ 39.3 µg/mL)				Cc1[nH]c2ccc(Cl)cc2c(=O)c1-c1ccc(OC2COC3C(O)COC23)cc1 (centres unmarked) [C00004]	> 100	
> 1	22 (≈ 9.41 µg/mL)				COC1COC2C(Oc3ccc(-c4c(C)[nH]c5ccc(Cl)cc5c4=O)cc3)COC12 (centres unmarked) [C00005]	> 100	
> 1	127 (≈ 59.9 µg/mL)				COCCOC1COC2C(Oc3ccc(-c4c(C)[nH]c5ccc(Cl)cc5c4=O)cc3)COC12 (centres unmarked) [C00006]	> 100	
